# Test results reported in ChEMBL document CHEMBL1201862, “PubChem BioAssay data set” (2004).
# The source made the active and inactive calls.
# What was measured:
# [1] = molecular target: T1, RNA-binding protein pos-1 (Caenorhabditis elegans, UniProt G5EF15); assay: disruptors of C. elegans POS-1 RNA interaction – biochemical, fluorescence polarization, dose response (AID 1964);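 note: purified POS-1 fused to maltose binding protein made in E. coli; potency of compounds blocking POS-1 binding to fluorescent RNA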
# T1 sequence (G5EF15 whole entry): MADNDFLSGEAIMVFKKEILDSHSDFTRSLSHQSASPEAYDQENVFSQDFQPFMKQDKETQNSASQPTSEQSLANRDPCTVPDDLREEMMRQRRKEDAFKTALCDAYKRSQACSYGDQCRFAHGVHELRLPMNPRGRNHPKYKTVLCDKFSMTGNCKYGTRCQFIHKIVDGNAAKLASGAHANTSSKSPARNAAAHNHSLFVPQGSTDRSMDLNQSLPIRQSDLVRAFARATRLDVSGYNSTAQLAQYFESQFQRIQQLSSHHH
# SUMO-activating enzyme [2] = molecular target: T2, SUMO-activating enzyme (Homo sapiens, UniProt Q9UBT2); assay: blockers of UBC9-mediated SUMO conjugation – biochemical, AlphaScreen, SUMOylation inhibitor project, confirmation (AID 2018); type: functional
# T2 sequence (Q9UBE0 whole entry): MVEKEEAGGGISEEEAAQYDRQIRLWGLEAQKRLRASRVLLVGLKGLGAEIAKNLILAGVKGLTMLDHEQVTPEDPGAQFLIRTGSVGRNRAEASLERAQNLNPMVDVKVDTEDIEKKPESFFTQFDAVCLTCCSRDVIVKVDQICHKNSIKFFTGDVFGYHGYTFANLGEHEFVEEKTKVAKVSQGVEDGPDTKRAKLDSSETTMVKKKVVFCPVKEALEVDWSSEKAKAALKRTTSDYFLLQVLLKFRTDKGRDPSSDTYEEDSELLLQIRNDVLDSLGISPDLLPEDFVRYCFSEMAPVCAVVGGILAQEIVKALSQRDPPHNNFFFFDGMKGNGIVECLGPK
# T2 sequence (Q9UBT2 whole entry): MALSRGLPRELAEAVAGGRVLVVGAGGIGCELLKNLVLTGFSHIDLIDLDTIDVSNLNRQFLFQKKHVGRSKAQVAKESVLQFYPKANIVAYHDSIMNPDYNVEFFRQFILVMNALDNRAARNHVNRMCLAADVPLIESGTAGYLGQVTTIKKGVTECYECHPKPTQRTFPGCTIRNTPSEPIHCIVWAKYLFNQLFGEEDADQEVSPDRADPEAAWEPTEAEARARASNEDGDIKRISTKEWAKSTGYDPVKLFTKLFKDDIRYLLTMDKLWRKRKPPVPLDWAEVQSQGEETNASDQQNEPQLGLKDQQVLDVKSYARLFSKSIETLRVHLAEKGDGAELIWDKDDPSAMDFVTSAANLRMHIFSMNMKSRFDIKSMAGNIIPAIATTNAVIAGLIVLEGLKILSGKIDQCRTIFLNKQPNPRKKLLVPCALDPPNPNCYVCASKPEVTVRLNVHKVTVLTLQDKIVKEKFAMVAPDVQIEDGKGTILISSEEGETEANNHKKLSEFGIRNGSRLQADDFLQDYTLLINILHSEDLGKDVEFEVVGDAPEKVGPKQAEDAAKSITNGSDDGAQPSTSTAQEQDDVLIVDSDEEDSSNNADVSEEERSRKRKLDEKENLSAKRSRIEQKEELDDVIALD
# [3] = molecular target: T3, Zinc finger protein mex-5 (Caenorhabditis elegans, UniProt Q9XUB2); assay: potency of MEX-5 RNA-binding blockers – biochemical, C. elegans, fluorescence polarization, dose response (AID 1960)
# T3 sequence (Q9XUB2 whole entry): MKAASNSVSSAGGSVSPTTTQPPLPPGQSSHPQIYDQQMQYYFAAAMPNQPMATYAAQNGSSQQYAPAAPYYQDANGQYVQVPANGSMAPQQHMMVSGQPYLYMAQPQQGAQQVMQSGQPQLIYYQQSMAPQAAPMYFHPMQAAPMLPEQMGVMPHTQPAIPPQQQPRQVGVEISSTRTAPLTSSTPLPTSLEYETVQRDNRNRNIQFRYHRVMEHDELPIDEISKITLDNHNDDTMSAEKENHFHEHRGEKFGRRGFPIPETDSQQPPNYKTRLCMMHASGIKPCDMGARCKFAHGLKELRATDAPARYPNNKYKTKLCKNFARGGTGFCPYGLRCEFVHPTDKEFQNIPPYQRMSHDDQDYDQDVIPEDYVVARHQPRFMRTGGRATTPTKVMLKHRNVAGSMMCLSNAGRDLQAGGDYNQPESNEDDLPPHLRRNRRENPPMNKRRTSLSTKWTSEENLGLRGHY
# SUMO-activating enzyme [4] = molecular target: T2, SUMO-activating enzyme; assay: blockers of SAE1/SAE2–UBC9 SUMO transfer – biochemical, HTRF, uHTS, primary screen (AID 2006); type: protein-complex assay
# [5] = mitochondrial function rescue without frataxin homolog – Friedreich's ataxia, plus single-dose screen, dose response (AID 1465); type: functional;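 note: yeast depleted of Yfh1p frataxin homolog grown on glycerol needing respiration; WST-1 tetrazolium dye reduction as measure of cellular dehydrogenase metabolic activity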
# [6] = molecular target: Aryl hydrocarbon receptor (Homo sapiens, UniProt P35869); assay: Luminescence-based cell-based high throughput dose response assay for activators of the Aryl Hydrocarbon Receptor (AHR). [Related pubchem assays: 2796 (Primary screen (AHR activators in singlicate)), 2845 (Confirmation screen (AHR activators in triplicate)), 434939 (Counterscreen (PXR activators in triplicate)), 2804 (Summary (AHR activators))]; type: ADME
# [7] = test system: Streptococcus sp. 'group A'; assay: Streptococcus pyogenes SK(-)GAS viability under kanamycin – luminescence, BacTiterGlo, confirmation, counter-screen for streptokinase expression inhibitor project, dose response (AID 1900); type: functional, organism-based
# Streptokinase A = molecular target: T4, Streptokinase A (Streptococcus pyogenes serotype M1, UniProt P10520); assay: viability-normalized secreted streptokinase activity reduction – plasminogen activation absorbance, OD405, dose response (AID 1914); type: functional, Streptococcus pyogenes M1 GAS;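 note: secreted streptokinase activity via plasminogen activation per viability signal from cell pellet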
# T4 sequence (P10520 whole entry): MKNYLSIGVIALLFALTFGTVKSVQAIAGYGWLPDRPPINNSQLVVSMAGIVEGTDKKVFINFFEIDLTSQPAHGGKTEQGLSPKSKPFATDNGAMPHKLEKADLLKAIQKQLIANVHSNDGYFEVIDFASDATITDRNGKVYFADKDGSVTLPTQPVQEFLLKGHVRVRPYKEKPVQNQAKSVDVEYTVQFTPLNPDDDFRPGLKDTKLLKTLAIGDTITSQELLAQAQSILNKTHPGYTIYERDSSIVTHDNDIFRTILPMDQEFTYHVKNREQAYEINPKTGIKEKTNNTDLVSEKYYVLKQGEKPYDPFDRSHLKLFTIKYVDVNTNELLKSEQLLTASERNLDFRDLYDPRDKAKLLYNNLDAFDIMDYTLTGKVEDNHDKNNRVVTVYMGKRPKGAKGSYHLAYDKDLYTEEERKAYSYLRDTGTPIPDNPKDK
# [8] = molecular target: Peroxisome proliferator-activated receptor gamma/Nuclear receptor corepressor 2 (Homo sapiens, UniProt P37231+Q9Y618); assay: Counterscreen for NR2E3 inverse agonists: TR-FRET-based biochemical high throughput dose response assay to identify inverse agonists of the interaction between peroxisome proliferator-activated receptor gamma (PPARg) and nuclear receptor co-repressor 2 (NCOR2).; type: functional
# [9] = molecular target: Photoreceptor-specific nuclear receptor (Homo sapiens, UniProt Q9Y5X4); assay: ligands suppressing NR2E3 nuclear receptor activity – biochemical, TR-FRET, dose response (AID 463256); type: functional
# Streptococcus = assay: GAS UMAA2166 growth inhibition – luminescence, BacTiterGlo, counter-screen for streptokinase expression inhibitor project, dose response (AID 1915); type: functional, organism-based;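 note: potency for reduction of bacterial viability or growth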
# Cytochrome P450 2C19 = Cytochrome P450 2C19 (Homo sapiens, UniProt P33261); assay: qHTS Assay for Inhibitors and Substrates of Cytochrome P450 2C19. [Related pubchem assays: 410 ]; type: ADME; conditions: read-out: Potency
# Vero [10] = assay: mammalian cell viability reduction – secondary assay, cytotoxicity control for West Nile virus antiviral project, dose response (AID 1650); type: functional; conditions: Chlorocebus sabaeus
# Vero [11] = assay: inhibition of WNV-induced cytopathic effect – cell-based, CPE readout (AID 1621); type: functional; conditions: Chlorocebus sabaeus
# Trypsin = Trypsin (Sus scrofa, UniProt P00761); assay: trypsin protease activity blockade – biochemical, quenched peptide fluorescence, cherry-pick, selectivity assay for Rce1 protease inhibitor project, dose response (AID 488789)
# Chain of Trypsin (P00761 whole entry): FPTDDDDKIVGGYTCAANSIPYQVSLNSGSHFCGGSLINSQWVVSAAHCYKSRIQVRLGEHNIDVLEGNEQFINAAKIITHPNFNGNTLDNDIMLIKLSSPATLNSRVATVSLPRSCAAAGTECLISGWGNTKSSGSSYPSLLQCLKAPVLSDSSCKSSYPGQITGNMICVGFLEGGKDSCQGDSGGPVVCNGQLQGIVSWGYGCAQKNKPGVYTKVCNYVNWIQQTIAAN
# CAAX prenyl protease 2 = molecular target: T5, CAAX prenyl protease 2 (Saccharomyces cerevisiae S288c, UniProt Q03530); type: biochemical
# T5 sequence (Q03530 whole entry): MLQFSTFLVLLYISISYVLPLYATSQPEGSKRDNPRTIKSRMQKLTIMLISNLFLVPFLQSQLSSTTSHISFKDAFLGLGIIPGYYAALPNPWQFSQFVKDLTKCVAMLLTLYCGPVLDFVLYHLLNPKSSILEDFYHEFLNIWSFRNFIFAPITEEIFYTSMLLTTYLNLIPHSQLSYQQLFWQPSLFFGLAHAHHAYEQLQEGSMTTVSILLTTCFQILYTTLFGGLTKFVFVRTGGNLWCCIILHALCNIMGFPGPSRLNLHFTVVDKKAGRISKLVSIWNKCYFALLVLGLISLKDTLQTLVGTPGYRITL
# [12] = molecular target: T6, DNA repair and recombination protein RAD54-like (Homo sapiens, UniProt Q92698); assay: RAD54 Holliday junction migration blockers – biochemical, fluorescence, cherry-picked samples, dose series, confirmation (AID 651657); type: functional
# T6 sequence (Q92698 whole entry): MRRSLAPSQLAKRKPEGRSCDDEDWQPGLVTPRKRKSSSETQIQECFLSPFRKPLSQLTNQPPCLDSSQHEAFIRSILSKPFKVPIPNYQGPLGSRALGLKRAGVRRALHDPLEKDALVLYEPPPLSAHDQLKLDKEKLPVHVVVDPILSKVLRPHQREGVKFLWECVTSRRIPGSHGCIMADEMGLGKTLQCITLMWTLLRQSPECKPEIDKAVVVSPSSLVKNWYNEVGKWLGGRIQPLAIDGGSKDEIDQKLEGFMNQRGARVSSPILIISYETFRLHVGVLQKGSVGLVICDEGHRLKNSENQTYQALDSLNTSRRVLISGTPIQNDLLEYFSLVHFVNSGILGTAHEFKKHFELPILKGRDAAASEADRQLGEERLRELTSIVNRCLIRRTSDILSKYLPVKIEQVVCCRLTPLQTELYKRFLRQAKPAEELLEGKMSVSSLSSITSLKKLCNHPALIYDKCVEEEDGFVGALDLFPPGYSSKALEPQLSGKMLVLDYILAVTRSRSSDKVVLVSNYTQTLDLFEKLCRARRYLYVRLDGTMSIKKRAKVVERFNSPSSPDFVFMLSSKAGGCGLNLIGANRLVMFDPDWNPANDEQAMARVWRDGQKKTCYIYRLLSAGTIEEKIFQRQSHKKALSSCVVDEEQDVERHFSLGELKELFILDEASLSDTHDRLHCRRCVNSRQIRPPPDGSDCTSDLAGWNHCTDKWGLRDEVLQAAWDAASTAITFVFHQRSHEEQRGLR
# [13] = molecular target: T7, DNA repair protein RAD52 homolog (Homo sapiens, UniProt P43351); type: functional, biochemical
# T7 sequence (P43351 whole entry): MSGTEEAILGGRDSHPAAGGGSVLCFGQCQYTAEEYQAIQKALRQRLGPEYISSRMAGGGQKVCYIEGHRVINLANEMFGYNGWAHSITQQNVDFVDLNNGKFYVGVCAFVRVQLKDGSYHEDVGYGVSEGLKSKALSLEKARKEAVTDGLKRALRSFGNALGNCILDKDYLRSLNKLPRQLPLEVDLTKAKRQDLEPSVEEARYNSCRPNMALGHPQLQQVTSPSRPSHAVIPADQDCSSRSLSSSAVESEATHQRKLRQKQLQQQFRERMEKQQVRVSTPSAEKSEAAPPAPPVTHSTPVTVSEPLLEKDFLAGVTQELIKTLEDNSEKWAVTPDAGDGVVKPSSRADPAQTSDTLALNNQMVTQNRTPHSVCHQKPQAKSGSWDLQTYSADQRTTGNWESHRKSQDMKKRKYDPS
# NADPH oxidase 1 = NADPH oxidase 1 (Homo sapiens, UniProt Q9Y5S8); type: functional, cell-based;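 note: Cell-based assay with luminescence read-out, IC50 derived from inhibitor dose-response curves; intracellular ROS from endogenous NOX1 in intact HT29 colon cancer cells; potency of inhibitors that lower the ROS luminescence signal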
# Chain of NADPH oxidase 1 (Q9Y5S8 whole entry): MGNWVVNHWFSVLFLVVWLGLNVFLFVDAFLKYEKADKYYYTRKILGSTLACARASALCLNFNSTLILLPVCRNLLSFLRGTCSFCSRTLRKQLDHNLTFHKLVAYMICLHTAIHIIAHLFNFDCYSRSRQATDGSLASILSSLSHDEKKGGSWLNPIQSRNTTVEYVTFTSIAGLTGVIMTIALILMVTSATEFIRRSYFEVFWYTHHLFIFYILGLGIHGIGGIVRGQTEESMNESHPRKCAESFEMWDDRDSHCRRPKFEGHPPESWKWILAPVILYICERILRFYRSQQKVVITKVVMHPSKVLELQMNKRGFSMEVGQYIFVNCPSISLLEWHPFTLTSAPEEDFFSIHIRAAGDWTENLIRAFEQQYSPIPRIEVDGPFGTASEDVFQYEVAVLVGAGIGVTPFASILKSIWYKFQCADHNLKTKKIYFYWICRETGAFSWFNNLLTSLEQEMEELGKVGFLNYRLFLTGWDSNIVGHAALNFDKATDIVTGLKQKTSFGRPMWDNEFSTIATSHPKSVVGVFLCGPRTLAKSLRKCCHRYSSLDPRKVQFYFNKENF
# Estrogen receptor beta [14] = molecular target: T8, Estrogen receptor beta (Homo sapiens, UniProt Q92731);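 note: recombinant ER-beta bound to coactivator SRC1 peptide in presence of estradiol agonist; inhibitors block coactivator peptide binding and lower the FRET signal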
# T8 sequence (Q92731 whole entry): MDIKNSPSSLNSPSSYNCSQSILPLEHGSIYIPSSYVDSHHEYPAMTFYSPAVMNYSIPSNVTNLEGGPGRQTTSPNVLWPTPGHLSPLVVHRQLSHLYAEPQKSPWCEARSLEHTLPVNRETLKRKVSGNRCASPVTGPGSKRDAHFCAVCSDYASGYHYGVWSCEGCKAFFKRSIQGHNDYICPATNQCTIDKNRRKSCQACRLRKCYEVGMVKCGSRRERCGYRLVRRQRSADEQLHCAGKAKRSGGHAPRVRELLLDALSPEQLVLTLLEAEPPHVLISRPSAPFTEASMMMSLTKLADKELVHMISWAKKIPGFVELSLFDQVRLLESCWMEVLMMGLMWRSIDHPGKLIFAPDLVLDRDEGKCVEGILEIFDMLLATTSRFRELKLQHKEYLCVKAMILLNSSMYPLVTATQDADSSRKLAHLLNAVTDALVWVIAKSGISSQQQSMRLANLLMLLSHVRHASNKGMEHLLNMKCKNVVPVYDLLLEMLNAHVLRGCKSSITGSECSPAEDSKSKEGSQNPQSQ
# Estrogen receptor beta [15] = molecular target: T8, Estrogen receptor beta; assay: blockers of SRC-3 recruitment to ERβ – biochemical, ELISA, streptavidin-HRP readout, orthogonal assay, confirmation (AID 1060)
# Bcl-2-like protein 10 = Bcl-2-like protein 10 (Homo sapiens, UniProt Q9HD36); assay: Concentration-response of Bcl-B inhibitors by biochemical FP with TR3 (AID 1243); type: functional
# Chain of Bcl-2-like protein 10 (Q9HD36 whole entry): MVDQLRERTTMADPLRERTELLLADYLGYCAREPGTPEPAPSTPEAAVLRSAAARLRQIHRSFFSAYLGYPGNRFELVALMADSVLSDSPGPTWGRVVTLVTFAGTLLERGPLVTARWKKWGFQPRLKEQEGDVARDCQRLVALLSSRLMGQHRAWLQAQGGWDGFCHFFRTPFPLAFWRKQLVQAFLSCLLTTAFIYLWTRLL
# [16] = molecular target: 5-hydroxytryptamine receptor 1A (Homo sapiens, UniProt P08908); type: functional
# Chain of 5-hydroxytryptamine receptor 1A (P08908 whole entry): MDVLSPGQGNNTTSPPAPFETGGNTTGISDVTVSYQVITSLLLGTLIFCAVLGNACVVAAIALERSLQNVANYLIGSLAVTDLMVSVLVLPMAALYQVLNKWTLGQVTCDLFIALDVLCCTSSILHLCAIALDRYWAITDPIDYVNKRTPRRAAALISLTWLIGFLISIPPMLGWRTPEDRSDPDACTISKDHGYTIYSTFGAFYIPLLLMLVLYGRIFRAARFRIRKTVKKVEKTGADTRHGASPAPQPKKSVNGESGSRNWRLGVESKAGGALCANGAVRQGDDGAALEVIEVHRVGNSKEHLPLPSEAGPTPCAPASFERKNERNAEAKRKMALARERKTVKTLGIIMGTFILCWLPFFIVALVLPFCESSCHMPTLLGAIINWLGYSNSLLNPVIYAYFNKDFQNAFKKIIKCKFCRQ
# [17] = molecular target: Sphingosine 1-phosphate receptor 2 (Homo sapiens, UniProt O95136); assay: Dose Response Cell Based Assay for Agonists of the S1P2 Receptor of Purchased Analogues. [Related pubchem assays: 729, 843, 854, 736 ]; type: functional
# [18] = molecular target: Peroxisome proliferator-activated receptor gamma/Nuclear receptor coactivator 1 (Homo sapiens, UniProt P37231); assay: TR-FRET dose response biochemical High Throughput Screening assay for agonists of the steroid receptor coactivator 1 (SRC-1) recruitment by the peroxisome proliferator-activated receptor gamma (PPAR gamma): non-selective agonists. [Related pubchem assays (depositor defined):AID1300, AID1808, AID504735, AID631]; type: protein assay
# Chain of Peroxisome proliferator-activated receptor gamma/Nuclear receptor coactivator 1 (P37231 whole entry): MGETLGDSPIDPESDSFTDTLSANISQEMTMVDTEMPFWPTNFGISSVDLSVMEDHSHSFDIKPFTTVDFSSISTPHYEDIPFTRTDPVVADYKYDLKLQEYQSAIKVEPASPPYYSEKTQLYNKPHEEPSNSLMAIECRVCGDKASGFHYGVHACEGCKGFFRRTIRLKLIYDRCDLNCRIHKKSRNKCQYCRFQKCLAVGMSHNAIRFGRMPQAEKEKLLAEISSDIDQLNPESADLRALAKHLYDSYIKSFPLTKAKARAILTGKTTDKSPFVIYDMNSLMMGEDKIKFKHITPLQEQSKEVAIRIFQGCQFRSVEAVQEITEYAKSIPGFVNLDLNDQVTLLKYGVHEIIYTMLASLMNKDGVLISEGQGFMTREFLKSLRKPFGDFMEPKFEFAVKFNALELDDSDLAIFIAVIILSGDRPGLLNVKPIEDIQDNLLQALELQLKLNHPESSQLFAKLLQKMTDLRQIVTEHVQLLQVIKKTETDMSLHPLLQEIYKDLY
# Chain of Peroxisome proliferator-activated receptor gamma/Nuclear receptor coactivator 1 (Q15788 whole entry, further chain): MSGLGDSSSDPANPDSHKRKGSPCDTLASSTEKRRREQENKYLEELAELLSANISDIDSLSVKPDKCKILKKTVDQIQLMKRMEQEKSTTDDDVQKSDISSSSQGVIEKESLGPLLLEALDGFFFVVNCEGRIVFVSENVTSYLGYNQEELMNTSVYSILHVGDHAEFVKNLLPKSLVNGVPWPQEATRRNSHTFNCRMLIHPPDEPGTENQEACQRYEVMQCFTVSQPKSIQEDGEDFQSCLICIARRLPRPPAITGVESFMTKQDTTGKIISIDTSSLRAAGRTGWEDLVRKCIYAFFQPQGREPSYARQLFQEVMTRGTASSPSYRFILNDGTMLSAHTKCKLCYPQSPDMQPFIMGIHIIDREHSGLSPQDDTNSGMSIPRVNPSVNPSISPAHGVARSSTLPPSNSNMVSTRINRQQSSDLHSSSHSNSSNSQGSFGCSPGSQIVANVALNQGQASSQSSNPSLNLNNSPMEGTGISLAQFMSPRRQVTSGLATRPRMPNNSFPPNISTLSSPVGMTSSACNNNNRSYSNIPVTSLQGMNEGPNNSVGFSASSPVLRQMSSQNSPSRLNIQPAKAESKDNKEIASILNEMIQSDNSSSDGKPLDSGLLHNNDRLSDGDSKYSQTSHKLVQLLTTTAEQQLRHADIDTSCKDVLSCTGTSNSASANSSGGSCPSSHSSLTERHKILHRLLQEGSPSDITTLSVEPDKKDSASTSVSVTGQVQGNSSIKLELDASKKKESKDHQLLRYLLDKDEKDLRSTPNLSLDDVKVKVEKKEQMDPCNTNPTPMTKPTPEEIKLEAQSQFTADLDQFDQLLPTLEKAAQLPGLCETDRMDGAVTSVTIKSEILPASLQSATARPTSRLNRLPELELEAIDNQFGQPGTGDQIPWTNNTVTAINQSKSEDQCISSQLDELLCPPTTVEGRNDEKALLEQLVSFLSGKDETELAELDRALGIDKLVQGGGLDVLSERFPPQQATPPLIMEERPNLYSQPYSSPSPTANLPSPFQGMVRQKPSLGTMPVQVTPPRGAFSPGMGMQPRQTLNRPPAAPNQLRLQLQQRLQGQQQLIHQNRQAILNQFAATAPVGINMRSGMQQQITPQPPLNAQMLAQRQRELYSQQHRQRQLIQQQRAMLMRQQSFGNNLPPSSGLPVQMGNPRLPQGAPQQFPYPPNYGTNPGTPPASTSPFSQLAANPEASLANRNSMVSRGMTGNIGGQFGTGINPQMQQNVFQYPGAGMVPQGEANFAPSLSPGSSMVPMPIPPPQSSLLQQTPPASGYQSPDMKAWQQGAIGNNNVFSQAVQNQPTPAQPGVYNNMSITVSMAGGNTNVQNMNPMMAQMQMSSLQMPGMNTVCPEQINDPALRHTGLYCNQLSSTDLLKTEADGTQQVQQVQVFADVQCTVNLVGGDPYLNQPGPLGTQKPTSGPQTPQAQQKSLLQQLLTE
# [19] = molecular target: Peroxisome proliferator-activated receptor gamma/Nuclear receptor coactivator 3 (Homo sapiens, UniProt P37231); assay: TR-FRET dose response biochemical High Throughput Screening assay for agonists of the steroid receptor coactivator 3 (SRC-3) recruitment by the peroxisome proliferator-activated receptor gamma (PPAR gamma): non-selective agonists. [Related pubchem assays: 1301 (Confirmation screen.), 1048 (Primary screen.)]; type: functional
# [20] = molecular target: Mothers against decapentaplegic homolog 3 (Homo sapiens, UniProt P84022); assay: inhibitors of SMAD-driven TGF-beta signaling – dose response (AID 715); type: functional
# [21] = molecular target: Peroxisome proliferator-activated receptor gamma/Nuclear receptor coactivator 2 (Homo sapiens, UniProt P37231); assay: TR-FRET dose response biochemical High Throughput Screening assay for agonists of the steroid receptor coactivator 2 (SRC-2) recruitment by the peroxisome proliferator-activated receptor gamma (PPAR gamma): non-selective agonists. [Related pubchem assays: 1297, 1032 ]; type: functional
smiles,measurement,setting,value
COc1cc([N+](=O)[O-])cc(/C=N/NC(=O)CC#N)c1O,EC50,[1],> 300 µM (inconclusive)
same,IC50,SUMO-activating enzyme [2],1.15 µM (active)
same,EC50,[3],> 300 µM (inconclusive)
same,IC50,SUMO-activating enzyme [4],8.76 µM (active)
same,EC50,[5],> 100 µM (active)
Cc1nc(C)c(C(=O)N/N=C/c2c[nH]c3ccccc23)s1,EC50,[6],> 91.7 µM (not active)
O=C(COc1ccc(Cl)cc1Cl)Nc1ccc(-c2ccc(N3CCOCC3)nn2)cc1,EC50,[7],> 150 µM (not active)
same,EC50,Streptokinase A,> 150 µM (not active)
same,IC50,[8],1.51 µM (active)
same,IC50,[9],1.43 µM (active)
same,EC50,Streptococcus,> 150 µM (not active)
CC(C)C[C@H](NC(=O)[C@@H](NC(=O)N[C@@H](Cc1ccccc1)C(=O)O)[C@H]1CCN=C(N)N1)C(=O)N[C@H](C=O)Cc1ccccc1,AC50,Cytochrome P450 2C19,10 µM (inconclusive)
CCN(CC)CCCNC(=O)c1cc2c(-c3cccc(OC)c3)nn(C)c2s1,CC50,Vero [10],> 100 µM (active)
same,IC50,Vero [11],19.9 µM (active)
same,AC50,Trypsin,9.95 µM (active)
same,AC50,CAAX prenyl protease 2,77.8 µM (active)
same,AC50,[12],34.1 µM (active)
same,AC50,[13],6.07 µM (active)
C=C(NNc1c(Cl)c(Cl)nc(C(=O)O)c1Cl)c1ccc2c(c1)OCCO2,IC50,NADPH oxidase 1,> 17 µM (not active)
O=C(c1cc2ncc(Br)cn2n1)N1CCOCC1,IC50,Estrogen receptor beta [14],9.16 µM (active)
same,IC50,Estrogen receptor beta [15],23 µM (not active)
Nc1ccc(Oc2ccc(N)c(N)c2)cc1N,EC50,Bcl-2-like protein 10,5.37 µM (active)
Cc1c(CN2CCN(c3cccc(C(F)(F)F)c3)CC2)c(=O)n(-c2ccccc2)n1C,EC50,[16],> 50 µM (not active)
Cc1cc(C(=O)CN2C(=O)C(=O)N(C3CCCC3)C2=O)c(C)n1Cc1ccccc1,EC50,[17],> 30 µM (not active)
CCN1CCCC1CNC(=O)CSc1cc(=O)n(C)c2cc(Cl)ccc12 (stereo not drawn),EC50,[18],> 79.4 µM (inactive)
same,EC50,[19],> 79.4 µM (not active)
same,IC50,[20],8.7 µM (active)
same,EC50,[21],> 79.4 µM (not active)
